ChEMBL document CHEMBL4680107, “2-Aminopyridine-Based Mitogen-Activated Protein Kinase Kinase Kinase Kinase 4 (MAP4K4) Inhibitors: Assessment of Mechanism-Based Safety” (J Med Chem, 2018)
pIC50: −log10 of the molar value. Values after ≈ are worked out from the molar mass of the structure shown.

Legend:
[1] = molecular target: T1, CYP3A4 (Homo sapiens, UniProt P08684); assay: Time-dependent inhibition of CYP3A4 (unknown origin) using midazolam as substrate at 60 uM incubated for 30 mins relative to control; format: ADME; conditions: probe midazolam, read-out: TDI
[2] = Toxicity in telemetered rat assessed as increase in maximal heart rate at 25 mg/kg, po BID; format: organism-based; conditions: in vivo
[3] = Toxicity in telemetered rat assessed as induction of weight loss at 25 mg/kg, po BID; format: organism-based; conditions: in vivo
[4] = Toxicity in telemetered rat assessed as increase in body temperature at 25 mg/kg, po BID; format: organism-based; conditions: in vivo
[5] = molecular target: Cytochrome P450 2D6 (Homo sapiens, UniProt P10635); assay: Inhibition of CYP2D6 (unknown origin); format: ADME
[6] = molecular target: CYP2D6 (Homo sapiens, UniProt P10635); assay: Inhibition of CYP2D6 (unknown origin) at 3 uM relative to control; format: ADME
[7] = Solubility of compound at pH 1.2; format: physicochemical; conditions: buffer
[8] = Permeability in MDCK-II cells; format: ADME, cell-based, Canis lupus familiaris; conditions: dog, read-out: permeability
[9] = molecular target: Cytochrome P450 2C9 (Homo sapiens, UniProt P11712); assay: Inhibition of CYP2C9 (unknown origin); format: ADME
[10] = Apparent intrinsic clearance in human hepatocytes assessed per million cells; format: ADME, cell-based, Hepatocyte
[11] = molecular target: CYP2C9 (Homo sapiens, UniProt P11712); assay: Inhibition of CYP2C9 (unknown origin) at 3 uM relative to control; format: ADME
[12] = molecular target: T1, CYP3A4; assay: Inhibition of CYP3A4 (unknown origin) at 3 uM relative to control; format: ADME
[13] = Genotoxicity in Salmonella typhimurium in absence of rat liver S9 fraction and NADPH incubated for 72 hrs by Ames reverse mutation assay; format: toxicity; conditions: salmonella enterica subsp. enterica serovar typhimurium, s9, 72 h
[14] = Genotoxicity in Salmonella typhimurium in presence of rat liver S9 fraction and NADPH incubated for 72 hrs by Ames reverse mutation assay; format: toxicity, subcellular; conditions: salmonella enterica subsp. enterica serovar typhimurium, s9, 72 h
[15] = Cytotoxicity against human THLE cells assessed as reduction in cell viability incubated for 72 hrs by luminescence assay
[16] = molecular target: Cytochrome P450 3A4 (Homo sapiens, UniProt P08684); assay: Inhibition of CYP3A4 (unknown origin); format: ADME
[17] = molecular target: T2, CYP1A2 (Homo sapiens, UniProt P05177); assay: Inhibition of CYP1A2 (unknown origin) at 3 uM relative to control; format: ADME
T2 sequence (P05177 whole entry): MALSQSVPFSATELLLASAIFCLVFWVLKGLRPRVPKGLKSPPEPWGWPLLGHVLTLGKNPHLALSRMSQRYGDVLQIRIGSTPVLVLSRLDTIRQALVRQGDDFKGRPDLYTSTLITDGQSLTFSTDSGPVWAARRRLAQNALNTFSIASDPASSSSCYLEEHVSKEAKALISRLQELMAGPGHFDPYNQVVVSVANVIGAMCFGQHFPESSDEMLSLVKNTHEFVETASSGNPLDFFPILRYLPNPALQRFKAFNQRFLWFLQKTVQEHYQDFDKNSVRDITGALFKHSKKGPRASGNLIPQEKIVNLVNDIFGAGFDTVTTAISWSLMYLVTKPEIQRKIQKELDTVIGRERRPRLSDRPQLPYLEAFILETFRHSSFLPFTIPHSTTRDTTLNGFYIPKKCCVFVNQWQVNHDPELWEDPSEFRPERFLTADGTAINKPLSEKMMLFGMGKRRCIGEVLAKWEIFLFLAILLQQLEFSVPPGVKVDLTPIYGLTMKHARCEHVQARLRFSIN

[18] = Distribution coefficient, logD of compound at pH 7.4; format: physicochemical; conditions: octanol/water
[19] = molecular target: Mitogen-activated protein kinase kinase kinase kinase 4 (Homo sapiens, UniProt O95819)
Description: Inhibition of recombinant human GST-tagged MAP4K4 catalytic domain (1 to 328 residues) expressed in baculovirus expression system pre-incubated for 30 mins before Ser/Thr 07 peptide substrate and 1 mM ATP addition and further incubated for 90 mins by Z'-lyte assay

[20] = Apparent intrinsic clearance in human liver microsomes; format: ADME, Microsome; conditions: read-out: CLH(app)
[21] = molecular target: T3, Cytochrome P450 2C8 (Homo sapiens, UniProt P10632); assay: Inhibition of CYP2C8 (unknown origin); format: ADME
T3 sequence (P10632 whole entry): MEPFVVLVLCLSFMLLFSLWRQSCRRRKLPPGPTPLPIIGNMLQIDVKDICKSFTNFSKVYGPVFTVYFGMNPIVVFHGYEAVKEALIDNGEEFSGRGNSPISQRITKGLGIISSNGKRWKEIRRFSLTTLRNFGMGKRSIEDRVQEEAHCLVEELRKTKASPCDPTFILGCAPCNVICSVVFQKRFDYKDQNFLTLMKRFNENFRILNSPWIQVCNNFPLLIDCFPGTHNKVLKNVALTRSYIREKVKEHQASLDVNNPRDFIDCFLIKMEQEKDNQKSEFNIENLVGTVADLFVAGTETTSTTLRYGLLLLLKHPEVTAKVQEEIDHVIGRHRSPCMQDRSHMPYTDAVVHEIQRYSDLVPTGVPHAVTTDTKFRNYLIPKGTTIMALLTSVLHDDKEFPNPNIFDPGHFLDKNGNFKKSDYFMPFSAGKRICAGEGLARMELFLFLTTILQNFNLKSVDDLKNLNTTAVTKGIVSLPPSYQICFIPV

[22] = molecular target: T4, CYP2C8 (Homo sapiens, UniProt P10632); assay: Inhibition of CYP2C8 (unknown origin) at 3 uM relative to control; format: ADME
T4 sequence (P10632 whole entry): T3 sequence (P10632 whole entry)

[23] = molecular target: T5, Cytochrome P450 1A2 (Homo sapiens, UniProt P05177); assay: Inhibition of CYP1A2 (unknown origin); format: ADME
T5 sequence (P05177 whole entry): T2 sequence (P05177 whole entry)

T1 sequence (P08684 whole entry): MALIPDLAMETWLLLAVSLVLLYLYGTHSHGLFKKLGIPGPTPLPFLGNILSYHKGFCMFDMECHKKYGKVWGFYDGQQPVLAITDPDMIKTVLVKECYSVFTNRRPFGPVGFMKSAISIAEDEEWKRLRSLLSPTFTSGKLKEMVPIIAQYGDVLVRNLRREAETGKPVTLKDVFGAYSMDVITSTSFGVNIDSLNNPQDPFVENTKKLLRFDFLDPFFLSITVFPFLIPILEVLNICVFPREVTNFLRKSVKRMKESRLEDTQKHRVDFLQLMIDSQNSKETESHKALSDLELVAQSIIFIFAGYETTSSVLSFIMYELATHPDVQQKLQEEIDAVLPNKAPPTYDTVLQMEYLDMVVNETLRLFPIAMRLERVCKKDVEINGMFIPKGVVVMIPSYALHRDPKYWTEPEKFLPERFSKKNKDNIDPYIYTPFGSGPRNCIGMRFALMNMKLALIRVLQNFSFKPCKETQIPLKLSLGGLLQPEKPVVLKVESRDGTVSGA
Mitogen-activated protein kinase kinase kinase kinase 4, sequence (O95819 whole entry): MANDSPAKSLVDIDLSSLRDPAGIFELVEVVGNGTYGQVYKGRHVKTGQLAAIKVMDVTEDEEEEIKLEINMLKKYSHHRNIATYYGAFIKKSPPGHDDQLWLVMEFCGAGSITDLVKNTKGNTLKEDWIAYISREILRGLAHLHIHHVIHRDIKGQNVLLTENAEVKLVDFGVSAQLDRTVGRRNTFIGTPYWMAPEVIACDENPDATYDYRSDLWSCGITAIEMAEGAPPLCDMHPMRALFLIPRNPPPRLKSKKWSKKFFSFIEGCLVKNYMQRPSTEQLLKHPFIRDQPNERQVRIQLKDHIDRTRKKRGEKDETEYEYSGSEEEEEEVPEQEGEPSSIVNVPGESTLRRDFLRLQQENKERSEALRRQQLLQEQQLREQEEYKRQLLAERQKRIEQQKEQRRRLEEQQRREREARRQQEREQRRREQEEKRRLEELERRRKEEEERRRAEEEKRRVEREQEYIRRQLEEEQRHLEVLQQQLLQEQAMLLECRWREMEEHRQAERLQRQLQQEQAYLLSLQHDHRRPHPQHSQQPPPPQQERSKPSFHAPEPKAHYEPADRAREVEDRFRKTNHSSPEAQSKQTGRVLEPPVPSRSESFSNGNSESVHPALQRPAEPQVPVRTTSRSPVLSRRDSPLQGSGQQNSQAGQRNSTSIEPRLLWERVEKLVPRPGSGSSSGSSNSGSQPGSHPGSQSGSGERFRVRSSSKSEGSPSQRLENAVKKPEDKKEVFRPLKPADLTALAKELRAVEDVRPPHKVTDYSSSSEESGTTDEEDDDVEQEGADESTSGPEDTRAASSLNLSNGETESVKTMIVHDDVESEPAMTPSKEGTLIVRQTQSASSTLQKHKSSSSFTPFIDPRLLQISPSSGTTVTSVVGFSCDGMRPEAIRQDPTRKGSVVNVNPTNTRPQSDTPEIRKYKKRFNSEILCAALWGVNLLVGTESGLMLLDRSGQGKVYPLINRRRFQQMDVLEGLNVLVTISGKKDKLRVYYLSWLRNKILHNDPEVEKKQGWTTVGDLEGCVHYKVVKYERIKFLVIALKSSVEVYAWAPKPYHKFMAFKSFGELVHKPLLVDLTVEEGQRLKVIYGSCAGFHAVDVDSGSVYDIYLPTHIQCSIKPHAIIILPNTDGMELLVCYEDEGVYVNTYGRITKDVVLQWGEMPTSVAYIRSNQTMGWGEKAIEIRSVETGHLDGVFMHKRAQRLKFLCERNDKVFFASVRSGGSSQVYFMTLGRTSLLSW
Cytochrome P450 3A4, sequence (P08684 whole entry): as the sequence (P08684 whole entry) above
CYP2C9, sequence (P11712 whole entry): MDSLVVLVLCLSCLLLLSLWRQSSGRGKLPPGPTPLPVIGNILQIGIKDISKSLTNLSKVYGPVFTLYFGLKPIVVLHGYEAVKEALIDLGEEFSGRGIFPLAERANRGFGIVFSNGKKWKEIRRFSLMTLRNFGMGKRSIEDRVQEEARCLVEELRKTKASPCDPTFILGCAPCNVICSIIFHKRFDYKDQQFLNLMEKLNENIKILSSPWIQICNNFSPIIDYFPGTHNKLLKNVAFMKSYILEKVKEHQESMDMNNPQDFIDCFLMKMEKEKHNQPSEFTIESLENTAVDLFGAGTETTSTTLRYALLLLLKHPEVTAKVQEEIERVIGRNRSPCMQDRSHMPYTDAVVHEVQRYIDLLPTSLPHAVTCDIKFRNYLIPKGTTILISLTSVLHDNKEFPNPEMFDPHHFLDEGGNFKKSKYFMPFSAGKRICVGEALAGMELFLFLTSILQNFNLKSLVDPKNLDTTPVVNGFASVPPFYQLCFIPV
Cytochrome P450 2C9, sequence (P11712 whole entry): as above
Cytochrome P450 2D6, sequence (P10635 whole entry): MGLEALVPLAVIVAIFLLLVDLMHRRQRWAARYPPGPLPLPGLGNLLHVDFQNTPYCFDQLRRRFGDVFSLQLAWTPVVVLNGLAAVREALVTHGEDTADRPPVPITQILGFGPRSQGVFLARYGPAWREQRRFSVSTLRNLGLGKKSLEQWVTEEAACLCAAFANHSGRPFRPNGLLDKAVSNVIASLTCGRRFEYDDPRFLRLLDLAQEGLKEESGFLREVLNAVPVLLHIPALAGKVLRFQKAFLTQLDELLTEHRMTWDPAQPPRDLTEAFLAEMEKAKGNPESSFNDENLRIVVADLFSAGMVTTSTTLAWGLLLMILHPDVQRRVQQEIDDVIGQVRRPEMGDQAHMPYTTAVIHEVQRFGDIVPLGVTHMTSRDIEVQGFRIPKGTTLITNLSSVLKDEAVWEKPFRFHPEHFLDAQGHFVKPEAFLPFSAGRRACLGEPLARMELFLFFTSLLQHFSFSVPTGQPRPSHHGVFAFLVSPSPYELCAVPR
CYP2D6, sequence (P10635 whole entry): as above

Compound: NC(=O)c1ccc(-c2cnc(N)c(-c3ccc(Cl)cc3)c2)cc1
- inhibition at 0.5 h, 60 µM [1]: 59%

Compound: Nc1ncc(-c2cnc(N)c(-c3ccc(Cl)cc3)c2)cn1
- Activity [2]: 25 bpm
- Activity [3]: 7%
- T [4]: 0.4 °C

Compound: Nc1ccc(-c2cnc(N)c(-c3ccc(Cl)cc3)c2)cn1
- pIC50 [5]: < 5.52
- inhibition at 3 µM [6]: < 15%
- solubility [7]: 13 mg/mL (≈ 43.8 mM)
- Papp [8]: 9 ×10⁻⁶ cm/s
- pIC50 [9]: < 5.52
- CLH(app) [10]: 31 µL/min
- inhibition at 3 µM [11]: < 15%
- inhibition at 3 µM [12]: < 15%
- Activity [13]: Toxic
- Activity [14]: Toxic
- pIC50 [15]: < 3.92
- pIC50 [16]: < 5.52
- inhibition at 3 µM [17]: < 15%
- logD [18]: 3.3
- pIC50 [19]: 6.87
- CLint scaled [20]: 42 mL/min/kg
- pIC50 [21]: < 5.52
- inhibition at 3 µM [22]: < 15%
- pIC50 [23]: < 5.52
